# Laboratory results from patent US10105411B2, “Compositions and methods for modulating AT2R activity” (Novopyxis, Inc., priority 2014, dated 2018).
# “Also recorded” adds a separate entry of the source. Where no end group is shown, it is not given here.
# Assays:
# PC-12 cells = assay: Survival/viability of serum-starved PC-12 cells (MTS cell proliferation assay); format: cell-based
# Experimental: (§1) Serum-starvation reduced survival of SH-SY5Y cells and PC-12 cells. […] Treatment of this cell line with 300 nM of NP-6AK agonist led to increased cell viability by over 30% relative to treatment with native ligand of AT2R Ang II (300 nM). […] AT2R activation by NP-6AK agonist promotes cell survival whereas AT2R activation by other ligands are harmful to it.
# [1] = tested on: mouse HL-1 cardiomyocytes; assay: Cell index (CI) cell survival, Xcelligence Real-Time Cell Analyzer, HL-1 cells; format: cell-based; conditions: for increase in cell index (CI): serum starved HL-1 cells
# Experimental: (§2) Thus, an NP-6AK agonist comprising the sequence Lys-Pro-Leu-Lys-Pro-Trp (SEQ ID NO. 2) promoted cell survival across mouse HL-1 cardiomyocytes and human smooth vascular muscle cells by acting through AT2R activation. Cell survival was assessed by measurement of cell index (CI) using a Xcelligence™ Real-Time Cell Analyzer (Westburg B V, Leusden, N L) to quantitatively determine the effect of different treatments on cell survival, adhesion, and proliferation. […] CGP42112A and the NP-6AK agonist (300 nM) increased CI of serum starved HL-1 cells in the order CGP42112A (≥14%), NP-6AK (≥25%). Increase in CI is a direct effect of AT2R activation. This was verified by addition of an AT2R antagonist, PD123319 (Sigma-Aldrich, Co. LLC, St. Louis, Mo.). In the presence of this antagonist, the cell survival otherwise observed using the NP-6AK agonist was not present.
# MCL-1 [2] = assay: MCL-1 expression in human vascular smooth muscle cells (CAVSMCs); format: cell-based; conditions: for effect of AT2R antagonist on NP-6AK-mediated MCL-1 upregulation: antagonist with NP-6AK agonist; for MCL-1 expression (in words): human CAVSMCs, FIG. 1B
# Text: (§3) Cells treated with the NP-6AK agonist generated higher MCL-1 upregulation relative to those treated with a partial agonist such as CGP42112A.
# MCL-1 [3] = assay: MCL-1 expression in HL-1 cardiomyocytes; format: cell-based, mouse; conditions: for effect of AT2R antagonist on NP-6AK-mediated MCL-1 upregulation: antagonist with NP-6AK agonist; for MCL-1 expression (in words): female mouse HL-1 cardiomyocytes, FIG. 1A
# Text: as §3
# SH-SY5Y cells [4] = assay: Survival of serum-starved SH-SY5Y cells (MTS cell proliferation assay); format: cell-based; conditions: serum starvation
# Experimental: as §1
# SH-SY5Y cells [5] = assay: Neurite elongation in SH-SY5Y cells; format: cell-based; conditions: FIG. 3A
# MCL-1 [6] = assay: MCL-1 expression in SH-SY5Y cells (immunofluorescence staining); format: cell-based
# Text: The SH-SY5Y cell line is a neuronal cell line with both dopaminergic and adrenergic receptors.
# [7] = tested on: primary murine embryonic cortical neurons; assay: Neuroprotection of primary cortical neurons under nutrient deprivation; format: cell-based; conditions: 300 nm agonist; glucose-free Locke's medium; 14 DIV; p<0.05
# Experimental: For nutrient deprivation, primary cortical neurons (14 DIV) were incubated in glucose-free Locke's medium with or without […] NP-6AK agonist.
# Ex vivo neurons were obtained and treated with an NP-6AK agonist in different conditions to assess neuroprotective properties. Normal primary murine embryonic cortical neurons in culture (14 days in vitro) were challenged with nutrient deprivation by incubation in glucose-free Locke's medium (Schnapf et al. (1990)). These cultures were then supplemented with 300 nM NP-6AK agonist or no NP-6AK agonist.
# Zucker Obese (ZO) rats = assay: Zucker Obese rat diabetic/cardiovascular model, 2 weeks subcutaneous treatment; format: in vivo
# Experimental: Zucker Obese (ZO) rats (Charles River Laboratories, Inc., Wilmington, Mass.), a diabetic animal model displaying signs of cardiovascular disease were treated for 2 weeks (dose of 0.9 mg/kg/day) via subcutaneous injection with an NP-6AK agonist and assessed for several markers of cardiovascular health including blood markers and structural parameters of the heart. Controls were ZO rats that received saline.
# [8] = tested on: human smooth vascular muscle cells; assay: Cell index (CI) cell survival, Xcelligence Real-Time Cell Analyzer, human smooth vascular muscle cells; format: cell-based
# Experimental: as §2
# [9] = 0.9 mg/kg/day s.c., vs saline ZO rats
compound,measurement,setting,value
AngII: native ligand of AT2R,cell survival relative to cells treated with AT2R antagonist PD123319,PC-12 cells; MTS assay,more detrimental
Cc1cc(Cn2cnc3c2C[C@@H](C(=O)O)N(C(=O)C(c2ccccc2)c2ccccc2)C3)ccc1N(C)C [PD123319],"cell survival otherwise observed using the NP-6AK agonist, in presence of the AT2R antagonist",[1]; antagonist added to NP-6AK agonist treatment,not present
same,protective effects of the NP-6AK agonist when treated with AT2R antagonist,PC-12 cells; PC-12 cells,the protective effects of the NP-6AK agonist were lost
same,effect of AT2R antagonist on NP-6AK-mediated MCL-1 upregulation,MCL-1 [2],MCL-1 upregulation was not observed
same,effect of AT2R antagonist on NP-6AK-mediated MCL-1 upregulation,MCL-1 [2]; listed as PD,prevents NP-6AK-mediated up regulation of MCL-1
same,effect of AT2R antagonist on NP-6AK-mediated MCL-1 upregulation,MCL-1 [3],MCL-1 upregulation was not observed
same,effect of AT2R antagonist on NP-6AK-mediated MCL-1 upregulation,MCL-1 [3]; listed as PD,prevents NP-6AK-mediated up regulation of MCL-1
"KPLKPW [NP-6AK agonist, AT2R agonist hexapeptide of the NP-6AK class]",survival rate,SH-SY5Y cells [4],higher survival rate
same,neurite elongation,SH-SY5Y cells [5],promotes neurite elongation
same,survival and proliferation compared with CGP42112A (300 nM),"[1]; 300 nM, cell index",significantly better survival and more proliferation
same,increase in cell index (CI),[1]; 300 nM,≥ 25%
same,increase in MCL-1 expression,"MCL-1 [6]; 300 nM, agonist alone, 24 hours, FIG. 2",2 fold
same,MCL-1 expression after treatment with Rapamycin,"MCL-1 [6]; agonist added after Rapamycin, FIG. 3B",reverses rapamycin-mediated suppression of MCL-1 expression; also recorded: able to recover MCL-1 expression
same,increased survival relative to treatment with 300 nM CGP42112A,PC-12 cells; MTS assay,over 70%
same,survival rate,PC-12 cells; serum starvation,higher survival rate
same,increased activity compared with negative controls,[7],60%
same,increased HDL on average,Zucker Obese (ZO) rats; [9],12%
same,reduced triglycerides (fasting plasma),Zucker Obese (ZO) rats; [9],~50%
same,reduced urine N-acetyl-beta-A-glucosaminidase,Zucker Obese (ZO) rats; [9],~60%
same,reduced urine protein,Zucker Obese (ZO) rats; [9],~68%
same,Echocardiography/Strain analysis E/E,"Zucker Obese (ZO) rats; male ZO rat, 0.9 mg/kg/day",26 ± 2.1
same,Echocardiography/Strain analysis MPI,"Zucker Obese (ZO) rats; male ZO rat, 0.9 mg/kg/day",0.389 ± 0.02
same,Plasma Profile HDL,"Zucker Obese (ZO) rats; male ZO rat, 0.9 mg/kg/day",73 ± 2.8 mg/dL
same,Plasma Profile Triglycerides,"Zucker Obese (ZO) rats; male ZO rat, 0.9 mg/kg/day",610 ± 109 mg/dL
same,Urine Profile NA6,"Zucker Obese (ZO) rats; male ZO rat, 0.9 mg/kg/day",10.9 ± 1.5 mg/dL
same,Urine Profile Protein,"Zucker Obese (ZO) rats; male ZO rat, 0.9 mg/kg/day",445 ± 86.4 mg/dL
same,Echocardiography/Strain analysis Circumferential Strain,"Zucker Obese (ZO) rats; male ZO rat, 0.9 mg/kg/day, endocardium, short axis view",−26.11 ± 2.47
same,higher MCL-1 expression,"MCL-1 [2]; 300 nM, human smooth vascular muscle cells, FIG. 1",22%
same,MCL-1 expression (in words),MCL-1 [2],increases MCL-1 expression
same,survival and proliferation compared with CGP42112A (300 nM),[8],significantly better survival and more proliferation
same,higher MCL-1 expression,"MCL-1 [3]; 300 nM, cardiomyocytes, FIG. 1",45%
same,MCL-1 expression (in words),MCL-1 [3],increases MCL-1 expression
CGP42112A,increase in cell index (CI),[1]; 300 nM,≥ 14%
same,cell survival relative to cells treated with AT2R antagonist PD123319,PC-12 cells; MTS assay,more detrimental
same,MCL-1 expression (in words),MCL-1 [2],unable to increase MCL-1
same,MCL-1 expression (in words),MCL-1 [3],unable to increase MCL-1
